Data taken from patent publication US6605666B1, “Polyurethane film-forming dispersions in alcohol-water system” (3M Innovative Properties Company, priority 2000, dated 2003).

What was measured:
[1] = Stability of dispersions on storage / standing; format: physicochemical; conditions: Example 6 dispersions
Protocol: The particle size of certain dispersions was measured on a Coulter LS 100 laser Particle Size Analyzer equipped with a microvolume module. Usually, the particle size was measured one day after dispersions were made. The particle size was measured again about 30 days after the dispersions were made. During this period, the dispersions were sealed and stored at room temperature. Samples were diluted in the same solvent mixture as the original dispersion to make the measurement. The results are shown in Table 2 below, which indicate that the dispersions have mean particle sizes generally under about 5 to 6 micrometers (μm). All dispersions appear to be stable after about 30 days.
After adding the prepolymer, each example was adjusted to a pH of about 7.0. To Example 2B was added a 40% solids, water based polyurethane pressure sensitive adhesive (PSA) (WD4006 from H.B. Fuller, St. Paul, Minn.). The PSA was added to increase adhesion to skin. The PSA was added to the alcohol-water solvent system prior to prepolymer addition. The EDA was added and the reaction mixture stirred at high speed for 20 minutes. Stable dispersions were obtained in call cases.
The dispersions with and without iodine anti-microbial agents were applied to human skin in small patches and allowed to dry. Adhesion was very good for all samples.

[2] = Spraying coated dispersion with water solutions (cospraying); format: physicochemical; conditions: water solution of the compound sprayed on knife coated dispersion of Example 9B
Source text: For an ionic dispersion, a solution containing polyion of the opposite charge can be applied to the film to create an instantaneous tack-free film. For example, an anionic dispersion can be coated and before it has formed a film, a solution containing polyvalent cation is sprayed on the coating's surface to yield a tack free film. This method is commonly referred to as “cospraying.” A preferred solution contains water and metal cations, such as calcium and magnesium. Preferably, the film becomes tack free almost instantaneously after spraying the water solution (i.e., within a minute, preferably within a few seconds). In applications where very rapid tack-free times are required, such as in preoperative preparation for surgery, it may be beneficial to mist or otherwise wet the surface of the film. By “tack-free,” it is generally meant that the misted film contains little or no adhesion to other substrates at ambient conditions, typically from about 20° to 30° C.
The dispersions of Example 9B we knife coated onto a polypropylene coated paper release liner and sprayed with water solutions containing the following materials. The film appearance was recorded in the Result column.

Molecule	stability of anti-microbial agent in the dispersions upon standing [1]	Result (film appearance) [2]
povidone-iodine	split out of the dispersions as a separate phase upon standing	
O=C([O-])CC(O)(CC(=O)[O-])C(=O)[O-].O=C([O-])CC(O)(CC(=O)[O-])C(=O)[O-].[Ca+2].[Ca+2].[Ca+2] [Calcium Citrate]		No effect
[Cl-].[Na+] [Sodium Chloride]		Random coagulation.
[Ca+2].[Cl-].[Cl-] [Calcium chloride]		Almost instantaneous tack-free film.
